Assay results published in patent US20040102361A1, “Pharmaceutical composition for the treatment of pulmonary arterial hypertension” (priority 2002, published 2004).
Where a name gives a salt, the structure may show the parent alone.

Key:
[1] = system: patients with severe pulmonary arterial hypertension; assay: Clinical trial AC-052-355: hemodynamic efficacy, change from baseline to week 16; assay type: in vivo; conditions: change from baseline at week 16
Protocol: (§1) This was a double-blind, randomized, placebo-controlled study to assess the effects of bosentan on hemodynamics, safety and tolerability in patients with severe pulmonary arterial hypertension when combined with the initiation of epoprostenol therapy.
(§2) Study design: The duration of the study was 16 weeks, 2:1 bosentan:placebo randomization. All patients received the starting epoprostenol dose of 2 ng/kg/min for 2 days, then they were randomized to receive either bosentan or placebo. Every 2 weeks thereafter, epoprostenol was increased by 2 ng/kg/min up to the target dose of 14±2 ng/kg/min by week 16. All patients received epoprostenol together with either bosentan or placebo for 16 weeks. Hemodynamic assessments were performed at baseline (prior to start of therapy) and again after 16 weeks of therapy. Safety monitoring was performed throughout the study duration.
Primary endpoint: Percent change from baseline in total pulmonary resistance (TPR) to week 16. The sample size was estimated for an expected mean difference in TPR of 28%.
(§3) Secondary endpoints: Changes from baseline to week 16 in CI (Cardiac Index), PVR (Pulmonary Vascular Resistance), […] (mean pulmonary arterial pressure), and mRAP (mean right atrial pressure); changes from baseline to week 16 in walk distance (6-min walk test), dyspnea fatigue rating, WHO functional class; and safety and tolerability.
(§4) Thirty-three patients entered the study: 11 patients received epoprostenol alone, while 22 patients received bosentan with epoprostenol.
In Table 1 the results are expressed as changes from baseline at week 16. Mean±SD (standard deviation) and median change (in brackets).

[2] = system: patients with severe pulmonary arterial hypertension; assay: Clinical trial AC-052-355: vital signs (systolic blood pressure, heart rate), change from baseline to week 16; conditions: human, in vivo
Protocol: as §1, §2, §3, §4

[3] = system: patients with severe pulmonary arterial hypertension; assay: Clinical trial AC-052-355: treatment emergent adverse events; assay type: in vivo; conditions: 16 weeks
Protocol: as §1, §2, §3, §4

CCCCC[C@H](O)/C=C/[C@@H]1[C@H]2C/C(=C/CCCC(=O)O)O[C@H]2C[C@H]1O [Epoprostenol alone, (5Z, 9α, 111α, 13E, 15)-6,9-epoxy-11,15-dihydroxyprosta-5,13-dien-1-oic acid, sodium salt]
CI, % mean change ([1]; cardiac index, mean (SD in the next cell)): 37.9% | CI, absolute change ([1]; mean (SD in the next cell)): 0.57 L/min/m^2 | TPR, absolute change ([1]; mean (SD in the next cell)): −386 dyn*sec/cm^5 | mPAP, absolute change ([1]; mean (SD in the next cell)): −1.6 mmHg | CI, % median change ([1]; median (in brackets)): (30.0%) | TPR, % median change ([1]; median (in brackets)): (−14.3%) | mRAP, absolute change ([1]; mean right atrial pressure, mean (SD in the next cell)): 0.3 mmHg | TPR, % mean change ([1]; total pulmonary resistance, mean (SD in the next cell)): −22.6% | Heart Rate (bpm), median change from baseline to week 16 [2]: 7.0 bpm | Systolic blood pressure (mmHg), change from baseline to week 16 [2]: −9.8 ± 10.9% | FLUSHING, % ([3]; human, in vivo): 45.5% | FLUSHING, No. ([3]; human, in vivo): 5 | HYPOTENSION, % ([3]; human, in vivo): 18.2% | HYPOTENSION, No. ([3]; human, in vivo): 2 | PAIN IN JAW, % ([3]; human, in vivo): 90.9% | PAIN IN JAW, No. ([3]; human, in vivo): 10 | HEADACHE, No. ([3]; number of patients with the adverse event, 11 patients epoprostenol alone, 22 bosentan with epoprostenol): 4 | HEADACHE, % ([3]; percent of patients with the adverse event): 36.4%
